# Literature values as cited in patent US20130059872A1, “POLYMORPHS OF ALOGLIPTIN BENZOATE” (MAPI PHARMA LIMITED, priority 2010, published 2013).
# Details: DSC data according to WO 2007/035372; recrystallization at 132° C., melt onset at 183° C.
smiles,measurement,value
"Cn1c(=O)cc(N2CCC[C@@H](N)C2)n(Cc2ccccc2C#N)c1=O [amorphous form 1 of WO 2007/035372, alogliptin benzoate]",solid-state stability of the amorphous phase on heating,crystallized to crystalline form A during heating
